Measurements reported in PMC3014437 (Bioorganic & medicinal chemistry, 2010).

System: LPS-induced iNOS-dependent NO production
Assay: LPS-induced NO production
Assay type: cell-based, murine
Conditions: Mus musculus, read-out: IC50 (µM) in NOS

Row | SMILES | IC50 [µM]
1 | C=C(C)C#Cc1c(C)c(OC)c(OC)c2c1OCO2 [Compound 2, Benzocamphorin B] | 12.1
2 | COc1cc(C)c(OC)c2c1OCO2 [Compound 8, 4,7-dimethoxy-5-methyl-1,3-benzodioxole] | 29.1 ± 4.4
3 | C=C(CC[C@@H](C)[C@H]1CC[C@H]2C3=C(C(=O)C[C@]12C)[C@@]1(C)CC[C@@H](O)[C@](C)(O)[C@@H]1C[C@@H]3O)C(C)C(=O)O (stereo partly shown) [Compound 32, antcin K] | > 50
4 | CC(C)[C@@H](C)/C=C/[C@@H](C)[C@H]1CC[C@@H]2[C@]1(C)CC[C@H]1[C@]23C=C[C@]2(C[C@@H](O)CC[C@]12C)OO3 [Compound 37, ergosterol peroxide] | 6.3 ± 1.8
